This is an account of results in patent publication US20220332706A1, “CRYSTALLINE FORMS OF A JAK2 INHIBITOR” (Impact Biomedicines, Inc., priority 2019, published 2022).

SMILES strings stand for the structures. In brackets after ≈: the same amount, converted by molar mass. Like-named read-outs stand apart in the source and are kept apart here. Bounds are passed on as bounds.

What all share (format): physicochemical
Data set [1] is described as follows: Relative stability (competitive ripening) study of Forms A and B. The settings on record: for Final Form Observed: seven days, suspension of ~10 mg Form A and ~10 mg Form B. Here is the method:
Saturated suspensions of Form A were prepared by stirring excess Form A in the specified solvent system. The suspension was stirred overnight at 25° C. A clarifying filtration was performed and the filtrate was added to a 2 mL vial containing ˜10 mg of Form A and ˜10 mg of Form B. The resulting suspensions were stirred at 25° C. for seven days, isolated, dried under vacuum for 45 minutes, and analyzed by FT-Raman.

A short description of data set [2]: Solubility assessment, visually estimated by dosing solvent aliquots into 10.0 mg API. The conditions noted are these: thermodynamic from solid. As for the experimental part:
Solubility was assessed in an array of diverse solvents in order to facilitate the selection of solvent systems and corresponding dosing strategies for the subsequent crystal-form screening experiments.

A short description of data set [3]: Moisture sorption/desorption isotherms (DVS). The settings on record: 25° C., first sorption cycle 0 to 75% RH, desolvation with solvent exchange induced by water vapour. Here is the method: Moisture sorption/desorption isotherms. All experiments were performed on a DVS-1 automated gravimetric vapour sorption analyser (Surface Measurement Systems Ltd., London, UK). The DVS measures the uptake and loss of vapour gravimetrically using a Cahn D200 recording ultra-microbalance with a mass resolution of ±0.1 μg. A controlled relative humidity is generated by mixing different proportions of dry and water saturated carrier gas streams (monitored by mass flow controllers). The temperature was maintained constant, ±0.1° C., by enclosing the entire system in a temperature-controlled incubator. A sample size around 10 mg was used. Prior to being exposed to any water vapour the samples were dried at 0% relative humidity (RH) to remove any surface water present and establish a dry, baseline mass. […] Two consecutive cycles were recorded. From the complete moisture sorption and desorption profile an isotherm was calculated using the DVS Advanced Analysis Suite v3.6. […]
DVS curves are carried out at 25° C. on hexafluoroisopropanol solvate (FIG. 18). After 6 hours under nitrogen a weight loss of 5% is recorded (a partial desolvation is observed with a pre-treatment at 25° C.). During the first sorption cycle, an important weight loss is recorded between 0 and 75% RH (around 30%). […]

A short description of data set [4]: Characterization of crystal forms: behaviour under ambient conditions.

Consider `Cc1cnc(Nc2ccc(OCCN3CCCC3)cc2)nc1Nc1cccc(S(=O)(=O)NC(C)(C)C)c1` [Form A], for which the “relative stability of hydrates” value in data set [1] (25° C., over the entire water activity range) is on record as “stable hydrate”. Also, the “Final Form Observed” value in data set [1] (Acetone:Water (83:17), water activity 0.75, 25 °C) is recorded as “Form A”; in data set [1] (Ethanol, water activity 0, 25 °C), “Form A”; in data set [1] (Methanol:Water (73:27), water activity 0.5, 25 °C) it was “Form A”; in data set [1] (Water, water activity 1, 25 °C) it was “Form A”. Also, the solubility (usually the dissolved amount per volume that the medium holds) in data set [2] (all other solvents evaluated (of 12; not DMSO, MeOH, water), organic solvent or mixture, in all other solvents evaluated, read-out: low solubility) was at most 5000 µg/mL; in data set [2] (organic solvent or mixture, DCM, 40° C., read-out: Solubility at 40° C.), below 5000 µg/mL; in data set [2] (organic solvent or mixture, DCM, RT, read-out: Solubility at RT) it was below 5000 µg/mL; in data set [2] (organic solvent or mixture, DMSO, RT, read-out: Solubility at RT) it was above 400000 µg/mL; in data set [2] (organic solvent or mixture, EtOAc, 40° C., read-out: Solubility at 40° C.), below 5000 µg/mL; in data set [2] (organic solvent or mixture, EtOAc, RT, read-out: Solubility at RT), below 5000 µg/mL. Also, the solubility in data set [2] (organic solvent or mixture, IPA, 40° C., read-out: Solubility at 40° C.) is below 5000 µg/mL; in data set [2] (organic solvent or mixture, IPA, RT, read-out: Solubility at RT) it was below 5000 µg/mL; in data set [2] (organic solvent or mixture, IPA:water (9:1) v/v, 40° C., read-out: Solubility at 40° C.), above 5000 µg/mL; in data set [2] (organic solvent or mixture, IPA:water (9:1) v/v, RT, read-out: Solubility at RT) it was below 5000 µg/mL; in data set [2] (organic solvent or mixture, IPE, 40° C., read-out: Solubility at 40° C.), below 5000 µg/mL; in data set [2] (organic solvent or mixture, IPE, RT, read-out: Solubility at RT) it was below 5000 µg/mL. In addition, the solubility in data set [2] (organic solvent or mixture, MTBE, 40° C., read-out: Solubility at 40° C.) is below 5000 µg/mL; in data set [2] (organic solvent or mixture, MTBE, RT, read-out: Solubility at RT), below 5000 µg/mL; in data set [2] (organic solvent or mixture, MeCN, 40° C., read-out: Solubility at 40° C.), below 5000 µg/mL; in data set [2] (organic solvent or mixture, MeCN, RT, read-out: Solubility at RT), below 5000 µg/mL; in data set [2] (organic solvent or mixture, MeOH, RT, read-out: Solubility at RT) it was above 400000 µg/mL; in data set [2] (organic solvent or mixture, THF, 40° C., read-out: Solubility at 40° C.), below 5000 µg/mL. Also, the solubility was below 5000 µg/mL in data set [2] (organic solvent or mixture, THF, RT, read-out: Solubility at RT); below 5000 µg/mL in data set [2] (organic solvent or mixture, Toluene, 40° C., read-out: Solubility at 40° C.); below 5000 µg/mL in data set [2] (organic solvent or mixture, Toluene, RT, read-out: Solubility at RT); 100000 to 400000 µg/mL (≈ 191 to 762 mM) in data set [2] (Water, RT, read-out: Solubility at RT); above 100000 µg/mL in data set [2] (in DMSO, MeOH, and water).

`Cc1cnc(Nc2ccc(OCCN3CCCC3)cc2)nc1Nc1cccc(S(=O)(=O)NC(C)(C)C)c1` [Form H]: in data set [3], the “form change during DVS” value is reported as “transform into Form B”.

For the compound `Cc1cnc(Nc2ccc(OCCN3CCCC3)cc2)nc1Nc1cccc(S(=O)(=O)NC(C)(C)C)c1` [Form I], in data set [4], the “physical stability of the solvate” value is listed as “efflorescent solvate”.
